{"source": "patent US20120148595A1", "about": "“GABA-LINKED ANTHRACYCLINE-LIPID CONJUGATES” (Luitpold Pharmaceuticals, Inc., priority 2009, published 2012)", "key": {"[1]": {"system": "Madison 109 (M109) mouse lung carcinoma", "description": "In all of the following in vivo experiments, the parent compound, doxorubicin, was injected intravenously (i.v.) in saline, while the fatty acid conjugates of doxorubicin were injected i.v. in 10% Cremophor® EL-P/10% ethanol/80% saline. The dosing schedule was Q3D×5.\nT-C in this assay is defined as the time in days for the drug-treated tumors to double their mass three times subtracted […] to double their mass three times."}, "HT-29 human colon tumor": {"system": "HT-29 human colon tumor", "test": "nude mouse xenograft model of the HT-29 human colon tumor", "assay_type": "in vivo", "details": "for Complete Regressions / Days Delay T-C / Drug-related Deaths: nude mouse", "description": "(§1) The dosing schedule was Q3D×5.\nIn the nude mouse xenograft model of the HT-29 human colon tumor (Table 3), doxorubicin produced a T-C delay of 15.3 days at the MTD dose of 6 mg/kg, whereas P-367 (LOC-GABA-doxorubicin) produced a T-C delay of 32 days at 50 mg/kg and 22 at 25 mg/kg. Note that the activity of the lowest dose of LOC-GABA-doxorubicin is approximately equivalent to the highest, MTD of doxorubicin itself."}, "[2]": {"system": "MDA-MB-435 human breast tumor", "test": "nude mouse xenograft model of the MDA-MB-435 human breast tumor", "assay_type": "in vivo", "details": "for Complete Regressions / Days Delay T-C / Drug-related Deaths: nude mouse", "description": "as §1\nIn the nude mouse xenograft model of the MDA-MB-435 human breast tumor (Table 4), doxorubicin produced a T-C delay of 14 days at the approximate MTD dose of 6 mg/kg (1/10 drug-related deaths). In the same model, LOC-GABA-doxorubicin produced a T-C delay of 13 days at 50 mg/kg (6/10 drug-related deaths) and 1.5 days at 25 mg/kg (0 drug-related deaths)."}, "M109-Lung Tumor": {"system": "M109-Lung Tumor", "test": "M109-Lung Tumor Model (Table 5, second study with OOC-GABA-doxorubicin)", "assay_type": "in vivo, mouse", "from_the_text": "as §1"}, "[3]": {"test": "Toxicology: maximum tolerated dose, i.v. Q3D×5", "details": "mouse, in vivo, iv; i.v. 5 times on a once every three day schedule", "from_the_text": "as §1"}, "[4]": {"test": "Solubility in solvents/excipients", "assay_type": "physicochemical", "from_the_text": "Table 7 summarizes the solubility of LOC-GABA-doxorubicin in several solvents."}, "[5]": {"test": "Stability in mouse serum/plasma at 37° C., HPLC", "assay_type": "in vitro ADME", "description": "[…] Serum samples added with only ethanol/Cremophor® were used as controls.\nAliquots (100 μL) were taken from the spiked samples at 0, 1, 4, 8 and 24 h time intervals. Proteins were precipitated from the spiked solutions by the addition of 300 μL of acetonitrile. The suspensions were centrifuged and the supernatant transferred to separate microfuge tubes. The precipitate was washed twice with 300 μL of 90% acetonitrile. The wash solutions were combined with the supernatant and evaporated to dryness using a Centrivap Concentrator. The residue was then dissolved in 100 μL of methanol. Vortex mixing and sonication for 30 sec each were used to help dissolve the residue. The solution was then centrifuged at 10,000 rpm for 15 min. A 20 μL aliquot of the supernatant was analyzed by HPLC (Phenomenex column, C18, 250×4.6 mm, 5 u) using the following gradient conditions: […]\nUV detection: 487 nm; column temperature: 40° C.; flow rate: 1 mL/min. Analytes were quantitated by comparison of peak areas from direct injections of standard solutions with those obtained from samples subjected to the extraction procedure. The percent recovery of spiked analytes was calculated by comparison of the sample peak areas before incubation (time: 0 h) with those subjected to incubation at 37° C. […]"}, "tumor growth": {"system": "tumor growth", "test": "anti-tumor activity of GABA-linked conjugate compared to the unconjugated anticancer agent (model not given)", "assay_type": "in vivo", "details": "model not specified", "from_the_text": "The anti-tumor activity of LOC-GABA-doxorubicin was studied in three tumor models."}}, "note": "Values joined by “and” are separate entries in the source; they are usually repeats but may differ in a detail not shown here. Equal entries are not always repeated. “Also recorded” adds a separate entry of the source. Where two headings read alike, the source gives them in different places."}
{"smiles": "CCCCC/C=C\\C/C=C\\CCCCCCCCOC(=O)NCCCC(=O)N[C@H]1C[C@H](O[C@H]2C[C@](O)(C(=O)CO)Cc3c(O)c4c(c(O)c32)C(=O)c2c(OC)cccc2C4=O)O[C@@H](C)[C@H]1O", "note": "[LOC-GABA-doxorubicin, linoleyl alcohol-GABA-doxorubicin]", "values": [{"measurement": "Drug-related Deaths", "setting": "[1]; 50 mg/kg i.v. Q3D×5", "value": "0/5"}, {"measurement": "Tumor Growth Delay T-C", "setting": "[1]; 50 mg/kg i.v. Q3D×5", "value": 28, "unit": "days"}, {"measurement": "Complete Regressions", "setting": "[1]; 75 mg/kg i.v. Q3D×5", "value": 0}, {"measurement": "Drug-related Deaths", "setting": "[1]; 75 mg/kg i.v. Q3D×5", "value": "0/5"}, {"measurement": "Tumor Growth Delay T-C", "setting": "[1]; 75 mg/kg i.v. Q3D×5", "value": 25, "unit": "days"}, {"measurement": "Complete Regressions", "setting": "[1]; 100 mg/kg i.v. Q3D×5", "value": 0}, {"measurement": "Drug-related Deaths", "setting": "[1]; 100 mg/kg i.v. Q3D×5", "value": "4/5"}, {"measurement": "Complete Regressions", "setting": "[1]; 150 mg/kg i.v. Q3D×5", "value": 0}, {"measurement": "Drug-related Deaths", "setting": "[1]; 150 mg/kg i.v. Q3D×5", "value": "4/5"}, {"measurement": "Complete Regressions", "setting": "HT-29 human colon tumor; 12.5 mg/kg i.v. Q3D×5", "value": 0}, {"measurement": "Days Delay T-C", "setting": "HT-29 human colon tumor; 12.5 mg/kg i.v. Q3D×5", "value": 5.4, "unit": "days"}, {"measurement": "Drug-related Deaths", "setting": "HT-29 human colon tumor; 12.5 mg/kg i.v. Q3D×5", "value": "0/10"}, {"measurement": "Complete Regressions", "setting": "HT-29 human colon tumor; 25 mg/kg i.v. Q3D×5", "value": 0}, {"measurement": "Days Delay T-C", "setting": "HT-29 human colon tumor; 25 mg/kg i.v. Q3D×5", "value": 22, "unit": "days"}, {"measurement": "Drug-related Deaths", "setting": "HT-29 human colon tumor; 25 mg/kg i.v. Q3D×5", "value": "0/10"}, {"measurement": "Complete Regressions", "setting": "HT-29 human colon tumor; 50 mg/kg i.v. Q3D×5", "value": 0}, {"measurement": "Days Delay T-C", "setting": "HT-29 human colon tumor; 50 mg/kg i.v. Q3D×5", "value": 32, "unit": "days"}, {"measurement": "Drug-related Deaths", "setting": "HT-29 human colon tumor; 50 mg/kg i.v. Q3D×5", "value": "0/10"}, {"measurement": "Complete Regressions", "setting": "HT-29 human colon tumor; 75 mg/kg i.v. Q3D×5", "value": 0}, {"measurement": "Days Delay T-C", "setting": "HT-29 human colon tumor; 75 mg/kg i.v. Q3D×5", "value": 34, "unit": "days"}, {"measurement": "Drug-related Deaths", "setting": "HT-29 human colon tumor; 75 mg/kg i.v. Q3D×5", "value": "6/10"}, {"measurement": "anti-tumor activity compared to doxorubicin", "setting": "HT-29 human colon tumor; HT29 human colon carcinoma xenograft", "value": "activity superior to doxorubicin; also recorded: superior anti-tumor activity"}, {"measurement": "Complete Regressions", "setting": "[2]; 12.5 mg/kg i.v. Q3D×5", "value": 0}, {"measurement": "Days Delay T-C", "setting": "[2]; 12.5 mg/kg i.v. Q3D×5", "value": -2.0, "unit": "days"}, {"measurement": "Drug-related Deaths", "setting": "[2]; 12.5 mg/kg i.v. Q3D×5", "value": "0/10"}, {"measurement": "Complete Regressions", "setting": "[2]; 25 mg/kg i.v. Q3D×5", "value": 0}, {"measurement": "Days Delay T-C", "setting": "[2]; 25 mg/kg i.v. Q3D×5", "value": 1.5, "unit": "days"}, {"measurement": "Drug-related Deaths", "setting": "[2]; 25 mg/kg i.v. Q3D×5", "value": "0 and 0/10"}, {"measurement": "Complete Regressions", "setting": "[2]; 50 mg/kg i.v. Q3D×5", "value": 0}, {"measurement": "Days Delay T-C", "setting": "[2]; 50 mg/kg i.v. Q3D×5", "value": 13, "unit": "days"}, {"measurement": "Drug-related Deaths", "setting": "[2]; 50 mg/kg i.v. Q3D×5", "value": "6/10"}, {"measurement": "Complete Regressions", "setting": "[2]; 75 mg/kg i.v. Q3D×5", "value": 0}, {"measurement": "Days Delay T-C", "setting": "[2]; 75 mg/kg i.v. Q3D×5", "value": 21, "unit": "days"}, {"measurement": "Drug-related Deaths", "setting": "[2]; 75 mg/kg i.v. Q3D×5", "value": "9/10"}, {"measurement": "anti-tumor activity compared to doxorubicin", "setting": "[2]; MDA-MB-435 human breast carcinoma xenograft", "value": "active, but somewhat less active than doxorubicin and somewhat less efficacious than doxorubicin and not"}, {"measurement": "Complete Regressions", "setting": "M109-Lung Tumor; 35 mg/kg i.v. Q3D×5", "value": 0}, {"measurement": "Days Delay T-C", "setting": "M109-Lung Tumor; 35 mg/kg i.v. Q3D×5", "value": 1.1, "unit": "days"}, {"measurement": "Drug-related Deaths", "setting": "M109-Lung Tumor; 35 mg/kg i.v. Q3D×5", "value": "0/5"}, {"measurement": "Complete Regressions", "setting": "M109-Lung Tumor; 50 mg/kg i.v. Q3D×5", "value": 0}, {"measurement": "Days Delay T-C", "setting": "M109-Lung Tumor; 50 mg/kg i.v. Q3D×5", "value": 5.2, "unit": "days"}, {"measurement": "Drug-related Deaths", "setting": "M109-Lung Tumor; 50 mg/kg i.v. Q3D×5", "value": "0/5"}, {"measurement": "Complete Regressions", "setting": "M109-Lung Tumor; 65 mg/kg i.v. Q3D×5", "value": 0}, {"measurement": "Days Delay T-C", "setting": "M109-Lung Tumor; 65 mg/kg i.v. Q3D×5", "value": 9.3, "unit": "days"}, {"measurement": "Drug-related Deaths", "setting": "M109-Lung Tumor; 65 mg/kg i.v. Q3D×5", "value": "0/5"}, {"measurement": "Complete Regressions", "setting": "M109-Lung Tumor; 80 mg/kg i.v. Q3D×5", "value": 0}, {"measurement": "Days Delay T-C", "setting": "M109-Lung Tumor; 80 mg/kg i.v. Q3D×5", "value": 9.5, "unit": "days"}, {"measurement": "Drug-related Deaths", "setting": "M109-Lung Tumor; 80 mg/kg i.v. Q3D×5", "value": "0/5"}, {"measurement": "MTD", "setting": "[3]", "value": "50 to 75", "unit": "mg/kg"}, {"measurement": "solubility", "setting": "[4]; aqueous with cosolvent or surfactant or cyclodextrin, Cremophor ® EL-P:ethanol:saline (10:10:80)", "value": 16.8, "unit": "mg/mL"}, {"measurement": "solubility", "setting": "[4]; dimethyl isosorbide (DMI), organic solvent or mixture", "value": 490, "unit": "mg/mL"}, {"measurement": "solubility", "setting": "[4]; ethanol, organic solvent or mixture", "value": 252, "unit": "mg/mL"}, {"measurement": "time stable in mouse plasma", "setting": "[5]; 10 mg/mL formulation pH 7.5, 10 parts to 90 parts plasma", "value": "more than 8 hours"}, {"measurement": "drug still present", "setting": "[5]; mouse plasma, 24 hours", "value": "over 90%"}, {"measurement": "anti-tumor activity compared to the unconjugated drug", "setting": "tumor growth", "value": "superior"}]}
{"smiles": "CCCCCCCC/C=C\\CCCCCCCCOC(=O)NCCCC(=O)N[C@H]1C[C@H](O[C@H]2C[C@](O)(C(=O)CO)Cc3c(O)c4c(c(O)c32)C(=O)c2c(OC)cccc2C4=O)O[C@@H](C)[C@H]1O", "note": "[OOC-GABA-doxorubicin, oleyl alcohol-GABA-doxorubicin]", "values": [{"measurement": "Complete Regressions", "setting": "M109-Lung Tumor; 50 mg/kg i.v. Q3D×5", "value": 0}, {"measurement": "Days Delay T-C", "setting": "M109-Lung Tumor; 50 mg/kg i.v. Q3D×5", "value": 10.0, "unit": "days"}, {"measurement": "Drug-related Deaths", "setting": "M109-Lung Tumor; 50 mg/kg i.v. Q3D×5", "value": "0/5"}, {"measurement": "Complete Regressions", "setting": "M109-Lung Tumor; 75 mg/kg i.v. Q3D×5", "value": 0}, {"measurement": "Days Delay T-C", "setting": "M109-Lung Tumor; 75 mg/kg i.v. Q3D×5", "value": 8.9, "unit": "days"}, {"measurement": "Drug-related Deaths", "setting": "M109-Lung Tumor; 75 mg/kg i.v. Q3D×5", "value": "0/5"}, {"measurement": "Complete Regressions", "setting": "M109-Lung Tumor; 100 mg/kg i.v. Q3D×5", "value": 0}, {"measurement": "Days Delay T-C", "setting": "M109-Lung Tumor; 100 mg/kg i.v. Q3D×5", "value": 10.3, "unit": "days"}, {"measurement": "Drug-related Deaths", "setting": "M109-Lung Tumor; 100 mg/kg i.v. Q3D×5", "value": "1/5"}, {"measurement": "Complete Regressions", "setting": "M109-Lung Tumor; 125 mg/kg i.v. Q3D×5", "value": 0}, {"measurement": "Drug-related Deaths", "setting": "M109-Lung Tumor; 125 mg/kg i.v. Q3D×5", "value": "3/5"}, {"measurement": "anti-tumor activity compared to doxorubicin", "setting": "M109-Lung Tumor; M109 mouse lung carcinoma model", "value": "superior anti-tumor activity"}]}
